{
  "source": "paper PMC4015282",
  "about": "“Transcriptional comparison of the filamentous fungus Neurospora crassa growing on three major monosaccharides D-glucose, D-xylose and L-arabinose” (Biotechnology for Biofuels, 2014)",
  "format_in_all_cases": "cell-based",
  "conditions_in_all_cases": "3 mM sugar; labelled compound",
  "key": {"GLT-1 (NCU01633) [1]": {"biological_target": "T1, GLT-1 (NCU01633) (Neurospora crassa, UniProt Q1K4S3)", "T1 construct": "cDNA cloned in pRS426 shuttle vector (PGK1 promoter, GFP ORF, CYC1 terminator)", "T1 sequence (Q1K4S3 1-532)": "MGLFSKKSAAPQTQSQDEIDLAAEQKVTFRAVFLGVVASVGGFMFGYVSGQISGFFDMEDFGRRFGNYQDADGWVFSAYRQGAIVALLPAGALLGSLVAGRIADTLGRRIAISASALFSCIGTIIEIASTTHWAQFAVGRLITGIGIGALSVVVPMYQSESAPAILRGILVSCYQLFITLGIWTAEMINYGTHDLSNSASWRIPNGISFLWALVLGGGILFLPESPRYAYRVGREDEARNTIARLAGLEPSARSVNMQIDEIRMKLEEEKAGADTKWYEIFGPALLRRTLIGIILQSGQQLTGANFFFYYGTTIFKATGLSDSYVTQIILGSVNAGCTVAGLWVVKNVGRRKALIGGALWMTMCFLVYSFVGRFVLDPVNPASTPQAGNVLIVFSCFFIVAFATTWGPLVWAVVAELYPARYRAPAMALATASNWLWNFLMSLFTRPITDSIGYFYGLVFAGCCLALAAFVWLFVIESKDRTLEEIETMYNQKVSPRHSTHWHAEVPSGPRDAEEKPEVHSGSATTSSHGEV", "assay": "radiolabelled sugar uptake in recombinant yeast, […] min; growth complementation"}, "LAT-1 (NCU02188) [2]": {"biological_target": "T2, LAT-1 (NCU02188) (Neurospora crassa, UniProt Q7S4D2)", "T2 construct": "expressed from pRS426-type vector in hexose-transporter-null S. cerevisiae EBY.VW4000", "T2 sequence (Q7S4D2 1-518)": "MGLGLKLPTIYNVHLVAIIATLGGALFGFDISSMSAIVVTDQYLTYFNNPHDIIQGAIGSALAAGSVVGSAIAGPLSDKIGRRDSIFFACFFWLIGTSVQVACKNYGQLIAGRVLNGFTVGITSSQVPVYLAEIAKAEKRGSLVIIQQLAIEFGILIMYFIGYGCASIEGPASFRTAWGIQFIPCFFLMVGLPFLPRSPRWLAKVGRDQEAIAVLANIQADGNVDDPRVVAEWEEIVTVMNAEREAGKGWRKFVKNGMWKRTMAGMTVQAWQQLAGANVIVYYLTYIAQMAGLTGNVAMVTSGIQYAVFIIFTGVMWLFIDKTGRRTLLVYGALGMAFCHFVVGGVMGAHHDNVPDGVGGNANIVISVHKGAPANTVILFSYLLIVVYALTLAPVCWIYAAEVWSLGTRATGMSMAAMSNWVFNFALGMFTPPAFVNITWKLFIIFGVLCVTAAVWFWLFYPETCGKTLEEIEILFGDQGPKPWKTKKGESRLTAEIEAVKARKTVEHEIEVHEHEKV", "assay": "radiolabelled sugar uptake in recombinant yeast, […] min; growth complementation"}, "GLT-1 (NCU01633) [3]": {"biological_target": "T1, GLT-1 (NCU01633)", "assay": "radiolabelled sugar uptake in recombinant yeast, […] min"}, "LAT-1 (NCU02188) [4]": {"biological_target": "T2, LAT-1 (NCU02188)", "assay": "radiolabelled sugar uptake in recombinant yeast, […] min"}},
  "data": [
    {"smiles": "OC[C@H]1OC(O)[C@H](O)[C@@H](O)[C@@H]1O", "note": "(stereo partly drawn) [D-glucose]", "values": [
      {"measurement": "radiolabelled sugar uptake in recombinant yeast, 2 min; growth complementation", "setting": "GLT-1 (NCU01633) [1]", "value": "D-glucose uptake was two orders of magnitude higher compared to that of D-xylose"},
      {"measurement": "radiolabelled sugar uptake in recombinant yeast, 2 min; growth complementation", "setting": "LAT-1 (NCU02188) [2]", "value": "does complement growth of EBY.VW4000 strain on D-glucose, indicating this protein can transport D-glucose"}
    ]},
    {"smiles": "OC1OC[C@@H](O)[C@H](O)[C@H]1O", "note": "(stereo partly drawn) [D-xylose]", "values": [
      {"measurement": "radiolabelled sugar uptake in recombinant yeast, 2 min", "setting": "GLT-1 (NCU01633) [3]", "value": "D-glucose uptake was two orders of magnitude higher compared to that of D-xylose"}
    ]},
    {"smiles": "OC1OC[C@H](O)[C@H](O)[C@H]1O", "note": "(stereo partly drawn) [L-arabinose]", "values": [
      {"measurement": "radiolabelled sugar uptake in recombinant yeast, 2 min", "setting": "LAT-1 (NCU02188) [4]", "value": "the L-arabinose uptake rate was much higher than that of D-glucose"}
    ]}
  ]
}
